# Assay results as given in US10597388B2, “Pyridazinone herbicides” (FMC CORPORATION, priority 2014, dated 2020).
# Key:
# Format in all cases: in vivo
# [1] = test system: kochia (Kochia scoparia); experiment: Test C greenhouse herbicide test, postemergence
# In short: (§1)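 Postemergence foliar treatment, 1- to 4-leaf stage (2–18 cm), peat/vermiculite medium; greenhouse 13–15 d; visual rating vs controls, 0 = no effect, 100 = complete control; dash = no result.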
# [2] = test system: chickweed (common chickweed, Stellaria media); experiment: Test C greenhouse herbicide test, postemergence
# In short: as §1
# [3] = test system: oat, wild (wild oat, Avena fatua); experiment: Test C greenhouse herbicide test, postemergence
# In short: as §1
# [4] = test system: waterhemp_RES1 (ALS & Triazine resistant common waterhemp, Amaranthus rudis); experiment: Test E greenhouse herbicide test, postemergence
# Method: (§2) At the same time, plants from these crop and weed species and also waterhemp_RES1, (ALS & Triazine resistant common waterhemp, Amaranthus rudis), and waterhemp_RES2, (ALS & HPPD resistant common waterhemp, Amaranthus rudis) were planted in pots containing Redi-Earth® planting medium (Scotts Company, 14111 Scottslawn Road, Marysville, Ohio 43041) comprising spaghnum peat moss, vermiculite, wetting agent and starter nutrients were treated with postemergence applications of test chemicals formulated in the same manner. Plants ranged in height from 2 to 18 cm for postemergence treatments (1- to 4-leaf stage). Treated plants and controls were maintained in a greenhouse for 14 to 21 d, after which time all species were compared to controls and visually evaluated. Plant response ratings, summarized in Table E, are based on a scale of 0 to 100 where 0 is no effect and 100 is complete control. A dash (-) response means no test result.
# [5] = test system: waterhemp_RES2 (ALS & HPPD resistant common waterhemp, Amaranthus rudis); experiment: Test E greenhouse herbicide test, postemergence
# Method: as §2
# [6] = test system: ragweed (common ragweed, Ambrosia elatior); experiment: Test C greenhouse herbicide test, pre- and postemergence
# In short: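 Visual 0–100 injury score (100 = complete control) taken against untreated controls after 13–15 d in greenhouse. Test chemicals, formulated in solvent plus surfactant, applied preemergence to seeds in loam–sand soil or postemergence to 1- to 4-leaf plants (2–18 cm).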
# [7] = test system: sedge, umbrella (small-flower umbrella sedge, Cyperus difformis); experiment: Test B flooded paddy test; conditions: 250 g ai/ha, Flood, visual rating on scale of 0 to 100 where 0 is no effect and 100 is complete control, 13 to 15 d after treatment
# In short: (§3)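 Ratings use a 0-100 visual scale, where 100 is complete control, and compare treated plants with controls after 13 to 15 d of greenhouse growth. Compound went straight into paddy water kept 3 cm over the soil surface, applied to seedlings at the 2-leaf stage.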
# [8] = test system: rice (Oryza sativa); experiment: Test B flooded paddy test; conditions: 250 g ai/ha, Flood, visual rating on scale of 0 to 100 where 0 is no effect and 100 is complete control, 13 to 15 d after treatment
# In short: as §3
# [9] = test system: ducksalad (Heteranthera limosa); experiment: Test B flooded paddy test; conditions: 250 g ai/ha, Flood, visual rating on scale of 0 to 100 where 0 is no effect and 100 is complete control, 13 to 15 d after treatment
# In short: as §3
# [10] = test system: barnyardgrass (Echinochloa crus-galli); experiment: Test B flooded paddy test; conditions: 250 g ai/ha, Flood, visual rating on scale of 0 to 100 where 0 is no effect and 100 is complete control, 13 to 15 d after treatment
# In short: as §3
# [11] = Postemergence, 31 g ai/ha, 0 to 100 scale (0 no effect, 100 complete control)
# [12] = Postemergence, 125 g ai/ha, scale 0 to 100, 0 is no effect, 100 is complete control
# [13] = Postemergence, 250 g ai/ha, scale 0 to 100, 0 no effect, 100 complete control, 13 to 15 d
# [14] = postemergence, 62 g ai/ha, scale 0 to 100, 0 no effect, 100 complete control
# [15] = 16 g ai/ha, visual, scale 0 no effect to 100 complete control
# [16] = 31 g ai/ha, visual, scale 0 no effect to 100 complete control
# [17] = 62 g ai/ha, scale 0 to 100 (0 no effect, 100 complete control)
# [18] = 125 g ai/ha, scale 0 to 100 (0 no effect, 100 complete control)
# [19] = 250 g ai/ha, scale 0 to 100 (0 no effect, 100 complete control)
# [20] = Preemergence, 31 g ai/ha, scale 0 to 100, 0 is no effect, 100 is complete control
# [21] = Preemergence, 62 g ai/ha, scale 0 to 100, 0 is no effect, 100 is complete control
# [22] = Preemergence, 125 g ai/ha, scale 0 to 100, 0 is no effect, 100 is complete control
# [23] = Preemergence, 250 g ai/ha, scale 0 to 100 (0 no effect, 100 complete control)
# [24] = Postemergence, 31 g ai/ha, scale 0 to 100 (0 no effect, 100 complete control)
# [25] = Postemergence, 62 g ai/ha, 0 to 100 scale (0 no effect, 100 complete control)
# [26] = Postemergence, 250 g ai/ha, scale 0 to 100, 0 is no effect, 100 is complete control
# [27] = postemergence, 125 g ai/ha, scale 0 to 100, 0 no effect, 100 complete control
structure (smiles),measurement,setting,value
"Cc1ccc2sc(C)c(-c3c(O)c(C)nn(C)c3=O)c2c1 [Compound 1, 4-(2,5-dimethylbenzo[b]thien-3-yl)-5-hydroxy-2,6-dimethyl-3(2H)-pyridazinone]",Kochia plant response rating,[1]; [11],95
same,"Plant response rating, Kochia",[1]; [12],95
same,"Plant response rating, Kochia",[1]; [13],100
same,Kochia plant response rating,[1]; [14],95
same,Chickweed plant response rating,[2]; [11],95
same,"Plant response rating, Chickweed",[2]; [12],98
same,"Plant response rating, Chickweed",[2]; [13],100
same,Chickweed plant response rating,[2]; [14],95
same,"Oat, Wild plant response rating",[3]; [11],50
same,"Plant response rating, Oat, Wild",[3]; [12],85
same,"Plant response rating, Oat, Wild",[3]; [13],100
same,"Oat, Wild plant response rating",[3]; [14],70
same,"Plant response rating, Waterhemp_RES1",[4]; [15],75
same,"Plant response rating, Waterhemp_RES1",[4]; [16],80
same,"Plant response rating, Waterhemp_RES1",[4]; [17],90
same,"Plant response rating, Waterhemp_RES1",[4]; [18],98
same,"Plant response rating, Waterhemp_RES1",[4]; [19],100
same,"Plant response rating, Waterhemp_RES2",[5]; [15],0
same,"Plant response rating, Waterhemp_RES2",[5]; [16],75
same,"Plant response rating, Waterhemp_RES2",[5]; [17],70
same,"Plant response rating, Waterhemp_RES2",[5]; [18],70
same,"Plant response rating, Waterhemp_RES2",[5]; [19],75
same,Ragweed plant response rating,[6]; [11],90
same,"Plant response rating, Ragweed",[6]; [12],95
same,"Plant response rating, Ragweed",[6]; [13],95
same,"Plant response rating, Ragweed",[6]; [20],90
same,"Plant response rating, Ragweed",[6]; [21],80
same,"Plant response rating, Ragweed",[6]; [22],100
same,Ragweed plant response rating,[6]; [23],98
same,Ragweed plant response rating,[6]; [14],95
same,pest or weed control at 250 g/ha,"[7]; Cyperus difformis, 360 h, read-out: Plant response rating, Sedge, Umbrella",0%
same,plant injury at 250 g/ha,"[8]; Oryza sativa, 360 h, read-out: Plant response rating, Rice",0%
same,pest or weed control at 250 g/ha,"[9]; Heteranthera limosa, 360 h, read-out: Plant response rating, Ducksalad",20%
same,pest or weed control at 250 g/ha,"[10]; Echinochloa crus-galli, 360 h, read-out: Plant response rating, Barnyardgrass",0%
CCC(=O)Oc1c(C)nn(C)c(=O)c1-c1c(C)sc2c(C)cc(C)cc12 [Compound 28],Kochia plant response rating,[1]; [11],70
same,"Plant response rating, Kochia",[1]; [12],95
same,"Plant response rating, Kochia",[1]; [13],100
same,Kochia plant response rating,[1]; [14],70
same,Chickweed plant response rating,[2]; [11],95
same,"Plant response rating, Chickweed",[2]; [12],98
same,"Plant response rating, Chickweed",[2]; [13],95
same,Chickweed plant response rating,[2]; [14],95
same,"Oat, Wild plant response rating",[3]; [11],95
same,"Plant response rating, Oat, Wild",[3]; [12],100
same,"Plant response rating, Oat, Wild",[3]; [13],100
same,"Oat, Wild plant response rating",[3]; [14],95
same,"Plant response rating, Waterhemp_RES1",[4]; [18],60
same,"Plant response rating, Waterhemp_RES1",[4]; [19],80
same,"Plant response rating, Waterhemp_RES2",[5]; [18],50
same,"Plant response rating, Waterhemp_RES2",[5]; [19],50
same,Ragweed plant response rating,[6]; [11],65
same,"Plant response rating, Ragweed",[6]; [12],85
same,"Plant response rating, Ragweed",[6]; [13],90
same,"Plant response rating, Ragweed",[6]; [20],70
same,"Plant response rating, Ragweed",[6]; [21],90
same,"Plant response rating, Ragweed",[6]; [22],95
same,Ragweed plant response rating,[6]; [23],90
same,Ragweed plant response rating,[6]; [14],75
same,"Plant response rating, Sedge, Umbrella",[7],95
same,"Plant response rating, Rice",[8],40
same,"Plant response rating, Ducksalad",[9],80
same,"Plant response rating, Barnyardgrass",[10],60
CC(=O)Oc1c(C)nn(C)c(=O)c1-c1c(C)sc2ccc(C)cc12 [Compound 25],Kochia plant response rating,[1]; [11],95
same,"Plant response rating, Kochia",[1]; [12],100
same,"Plant response rating, Kochia",[1]; [13],100
same,Kochia plant response rating,[1]; [14],95
same,Chickweed plant response rating,[2]; [11],90
same,"Plant response rating, Chickweed",[2]; [12],100
same,"Plant response rating, Chickweed",[2]; [13],100
same,Chickweed plant response rating,[2]; [14],98
same,"Oat, Wild plant response rating",[3]; [11],60
same,"Plant response rating, Oat, Wild",[3]; [12],90
same,"Plant response rating, Oat, Wild",[3]; [13],95
same,"Oat, Wild plant response rating",[3]; [14],70
same,"Plant response rating, Waterhemp_RES1",[4]; [16],75
same,"Plant response rating, Waterhemp_RES1",[4]; [17],80
same,"Plant response rating, Waterhemp_RES1",[4]; [18],85
same,"Plant response rating, Waterhemp_RES1",[4]; [19],95
same,"Plant response rating, Waterhemp_RES2",[5]; [16],70
same,"Plant response rating, Waterhemp_RES2",[5]; [17],60
same,"Plant response rating, Waterhemp_RES2",[5]; [18],70
same,"Plant response rating, Waterhemp_RES2",[5]; [19],75
same,Ragweed plant response rating,[6]; [11],90
same,"Plant response rating, Ragweed",[6]; [12],95
same,"Plant response rating, Ragweed",[6]; [13],95
same,"Plant response rating, Ragweed",[6]; [20],80
same,"Plant response rating, Ragweed",[6]; [21],95
same,"Plant response rating, Ragweed",[6]; [22],98
same,Ragweed plant response rating,[6]; [23],95
same,Ragweed plant response rating,[6]; [14],85
same,"Plant response rating, Sedge, Umbrella",[7],60
same,"Plant response rating, Rice",[8],0
same,"Plant response rating, Ducksalad",[9],20
same,"Plant response rating, Barnyardgrass",[10],30
CSCC(=O)Oc1c(C)nn(C)c(=O)c1-c1cccc2ccccc12 [Compound 171],"Plant response rating, Kochia",[1]; [24],95
same,Kochia plant response rating,[1]; [25],95
same,"Plant response rating, Kochia",[1]; [26],98
same,Kochia plant response rating,[1]; [27],98
same,"Plant response rating, Chickweed",[2]; [24],90
same,Chickweed plant response rating,[2]; [25],90
same,"Plant response rating, Chickweed",[2]; [26],95
same,Chickweed plant response rating,[2]; [27],90
same,"Plant response rating, Oat, Wild",[3]; [24],65
same,"Oat, Wild plant response rating",[3]; [25],90
same,"Plant response rating, Oat, Wild",[3]; [26],95
same,"Oat, Wild plant response rating",[3]; [27],90
same,"Plant response rating, Waterhemp_RES1",[4]; [16],50
same,"Plant response rating, Waterhemp_RES1",[4]; [18],75
same,"Plant response rating, Waterhemp_RES1",[4]; [19],90
same,"Plant response rating, Waterhemp_RES2",[5]; [16],15
same,"Plant response rating, Waterhemp_RES2",[5]; [18],40
same,"Plant response rating, Waterhemp_RES2",[5]; [19],60
same,"Plant response rating, Ragweed",[6]; [24],75
same,Ragweed plant response rating,[6]; [25],100
same,"Plant response rating, Ragweed",[6]; [26],100
same,"Plant response rating, Ragweed",[6]; [20],65
same,"Plant response rating, Ragweed",[6]; [21],80
same,"Plant response rating, Ragweed",[6]; [22],95
same,Ragweed plant response rating,[6]; [27],100
same,"Plant response rating, Sedge, Umbrella",[7],60
same,"Plant response rating, Rice",[8],0
same,"Plant response rating, Ducksalad",[9],0
same,"Plant response rating, Barnyardgrass",[10],0
COc1nn(C)c(=O)c(-c2c(C)sc3ccc(Cl)cc23)c1O [Compound 100],"Plant response rating, Kochia",[1]; [12],95
same,"Plant response rating, Kochia",[1]; [13],95
same,Kochia plant response rating,[1]; [14],90
same,Chickweed plant response rating,[2]; [11],90
same,"Plant response rating, Chickweed",[2]; [12],95
same,"Plant response rating, Chickweed",[2]; [13],95
same,Chickweed plant response rating,[2]; [14],90
same,"Plant response rating, Oat, Wild",[3]; [12],85
same,"Plant response rating, Oat, Wild",[3]; [13],95
same,"Oat, Wild plant response rating",[3]; [14],70
same,"Plant response rating, Waterhemp_RES1",[4]; [16],80
same,"Plant response rating, Waterhemp_RES1",[4]; [18],85
same,"Plant response rating, Waterhemp_RES1",[4]; [19],90
same,"Plant response rating, Waterhemp_RES2",[5]; [16],50
same,"Plant response rating, Waterhemp_RES2",[5]; [18],65
same,"Plant response rating, Waterhemp_RES2",[5]; [19],70
same,"Plant response rating, Ragweed",[6]; [12],95
same,"Plant response rating, Ragweed",[6]; [13],98
same,Ragweed plant response rating,[6]; [14],95
same,"Plant response rating, Sedge, Umbrella",[7],0
same,"Plant response rating, Rice",[8],0
same,"Plant response rating, Ducksalad",[9],0
same,"Plant response rating, Barnyardgrass",[10],0
